# Data taken from patent US9351980B2, “Di-aspirin derivatives” (The University of Wolverhampton, priority 2010, dated 2016).
# How the values were obtained:
# SW480 cell line = assay: MTT in vitro cytotoxicity assay on SW480 cells; assay type: cell-based
# Method: The MTT assay was utilised with a 24 hour incubation period of cell exposure to the compound. […] Experiments were carried out in triplicate; error bars indicate standard deviation.
# The carrier molecule utilised (DMSO) in these experiments to prepare stock solutions was buffered with Tris-HCl buffer pH8.0 (0.5M) to mitigate against any pH changes caused by the addition of compounds to cell culture medium. All data shown were normalised to cells exposed only to buffered carrier molecule.
# The result shown is the average of three independent experiments (error bars indicate mean+/−SEM). For comparative purposes, compound toxicity is shown alongside the equivalent concentration of salicylic acid (SA) and aspirin (as tested using the MTT assay with a 72 hour incubation of SW480 cells with compound). The carrier molecule utilised in these experiments was DMSO (dimethyl sulphoxide); all data shown were normalised to cells exposed only to carrier molecule.
# [1] = tested on: SW480 colon carcinoma cell line, HCT-116 colon cancer cell line, MDA-231MB breast cancer cell line; assay: MTT titration assay (cell viability, 24 hours) on colon versus breast cancer cell lines; assay type: cell-based
# Method: In the examples, assays mentioned are standard cytotoxicity assays and cell cultures used are prepared under standard conditions. The MTT assay referred to is MTT [3-(4,5-Dimethylthiazol-2-yl)-2,5-diphenyltetrazolium-bromide] assay (Mosmann T; J Immunol Methods 65: 55-63, 1983).
# In FIG. 2, the in vitro toxicity of BCS, compound 508 of table 1, was investigated in further detail by titration against the SW480 colon carcinoma cell line and the DNA mismatch repair deficient HCT-116 colon cancer cell line and the MDA-231MB breast cancer cell line again utilising the MTT assay as described previously. The concentration-effect relationship for the three different cells lines is given in FIG. 2 (error bars indicate mean+/−S.D.). All experiments were performed in triplicate. For clarity, carrier molecule (DMSO) toxicity of the equivalent concentration utilised is also shown.
# MAC13 tumour = assay: Tumour volume in MAC 13 tumour bearing mice; assay type: in vivo; settings: MAC13 tumour bearing NMRI mice, 1 mg/kg dissolved in PBS (FIG. 7)
# Method: NMRI mice were treated with MAC13 cells (5×10^6) sub cut in their flanks (Hussey H J, Bibby […]; British J. of Cancer, 73, 1187-1192, 1996), were treated with example compounds. Once the tumour was established the tumour was dissected and small fragments re-transplanted into more mice. […] The mice were monitored daily-weight, food and water consumption and tumour size was recorded using calipers. The experiment ended when the control mouse tumours started to ulcerate.
# [2] = human subjects given analgesic doses of aspirin; cited from earlier work
# colorectal cells = settings: previously reported; cited from earlier work
Structure (SMILES),"toxicity in comparison to aspirin (SW480 cell line; MTT assay, equivalent concentration of aspirin (FIG. 3, 48 hour incubation))","specificity against the cell line derived from a colon cancer (SW480 cell line; SW480 versus MCF-7 and U373MG (FIG. 1), MTT)","specific toxicity to colorectal cancer cells ([1]; MTT titration, 24 hours, SW480, HCT-116 versus MDA-231MB)","selectivity for SW480 compared with MDA-231-MB cells ([1]; cell viability assay, colon carcinoma versus breast cancer-derived cell line)",tumour growth (MAC13 tumour),salicylate levels achievable in serum [2] [mM],toxicity to colorectal cells in vitro (colorectal cells)
"O=C(CCC(=O)Oc1ccccc1C(=O)O)Oc1ccccc1C(=O)O [Compound 508, bis(2-carboxyphenyl) succinate]",more toxic in comparison to aspirin,retains a degree of specificity,specifically toxic to colorectal cancer cells,significantly more toxic to SW480 colorectal cancer cells than to MDA-231-MB cells,decrease in tumour growth,–,–
"O=C(/C=C/C(=O)Oc1ccccc1C(=O)O)Oc1ccccc1C(=O)O [Compound 517, fumaroyldiaspirin]",–,–,–,–,decrease in tumour growth,–,–
"CC(=O)Oc1ccccc1C(=O)O [Aspirin, acetylsalicylic acid]",–,–,–,–,–,> 1,exhibit toxicity
